Some test systems named below: A498; CAKI-1; DMS-273; EKVX; HCC 2998; HCT-15; HOP-62; HOP-92; IGROV-1; NCI-H522; OVCAR-3; OVCAR-4; OVCAR-8; RPMI-8226; RXF 393; SK-MEL-28; U-251; SK-MEL-2; MDA-MB-435; PC-3.
What all share (experiment): growth of human tumour cells (NCI), 48 h

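Tested at 5 concentrations; 48 h exposure; 96-well plates; endpoints linearly interpolated, else capped at highest concentration. Here, GI50 denotes the concentration required for 50% inhibition of growth.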 Calls of active or inactive are those of the source. Rule as the data show it: active = GI50 up to about 1.1 µM and inactive = higher. Where only a bound is given, the exact number is not on record here.

As to `S=C1OC2C3C4CC5C3C(O1)C1C5C4C21` (stereo unspecified), the GI50 with A498 is > 100 µM (inactive); in the assay with CAKI-1 it was > 100 µM (inactive); in the assay with DMS-273 it was 89.1 µM (inactive); with EKVX it was > 100 µM (inactive); with HCC 2998, > 100 µM (inactive); in the assay with HCT-15 it was greater than 100 µM. The GI50 in the assay on HOP-62, in the assay with HOP-92, in the assay on IGROV-1, with NCI-H522, in the assay with OVCAR-3 and in the assay with OVCAR-4 was > 100 µM (inactive) throughout. Also, the GI50 in the assay on OVCAR-8, in the assay with RPMI-8226, in the assay with RXF 393, in the assay on SK-MEL-28 and in the assay on U-251 was > 100 µM (inactive) throughout.

In the case of `C=C=C(C(=O)OC)[S+]([O-])c1ccc([N+](=O)[O-])cc1[N+](=O)[O-]` (stereo unspecified), the GI50 in the assay on A498 was > 100 µM (inactive); in the assay with CAKI-1, 25.9 µM (inactive); with DMS-273, 37.4 µM (inactive); with EKVX, > 100 µM (inactive); in the assay with HCC 2998, 14.7 µM (inactive); with HCT-15, 21.5 µM. Moreover, the GI50 with HOP-62 is > 45.3 µM (inactive); in the assay on HOP-92 it was 18.6 µM (inactive); in the assay on IGROV-1, > 69.8 µM (inactive); in the assay with NCI-H522, 14.2 µM (inactive); in the assay on OVCAR-3, 25.3 µM (inactive); in the assay on OVCAR-4, 35.6 µM (inactive). The GI50 with OVCAR-8 was 25.2 µM (inactive); with RPMI-8226, 21.7 µM (inactive); with RXF 393, 30.7 µM (inactive); in the assay with SK-MEL-28 it was 34.7 µM (inactive); in the assay with SK-MEL-2, 44.5 µM (inactive); with U-251, 38.1 µM (inactive).

Regarding `Cc1c(CCCl)c(Cl)n2c(nc3ccccc32)c1C#N`, the GI50 in the assay with A498 was 1.37 µM (inactive); in the assay with CAKI-1, 0.597 µM (active); in the assay on DMS-273, 0.457 µM (active); in the assay on EKVX, 3.21 µM (inactive); in the assay on HCC 2998, 1.56 µM (inactive); in the assay with HCT-15 it was 0.644 µM. Also, the GI50 in the assay on HOP-62 was 2 µM (inactive); in the assay on HOP-92 it was 1.15 µM (inactive); in the assay on IGROV-1 it was 1.62 µM (inactive); in the assay with MDA-MB-435 it was 0.796 µM (active); with NCI-H522, 0.432 µM (active); in the assay with OVCAR-3, 1.35 µM (inactive). Also, the GI50 in the assay on OVCAR-4 was 1.44 µM (inactive); in the assay with OVCAR-8, 1.25 µM (inactive); with PC-3, 1.02 µM (active); with RPMI-8226 it was 0.092 µM (active); in the assay on RXF 393, 0.787 µM (active); with SK-MEL-28, 1.94 µM (inactive). For the same compound, the GI50 in the assay with SK-MEL-2 was 1.06 µM (active); in the assay with U-251, 0.986 µM (active).

Regarding `O=C(O)CSc1nnc(-c2ccco2)[nH]1`, the GI50 in the assay with A498, in the assay on CAKI-1, with DMS-273, with EKVX, with HCC 2998 and in the assay with HOP-62 was > 100 µM (inactive) throughout. Moreover, the GI50 in the assay with HOP-92, in the assay on IGROV-1, in the assay on NCI-H522, in the assay on OVCAR-3, with OVCAR-4 and in the assay with OVCAR-8 was > 100 µM (inactive) each time. The GI50 with RPMI-8226, in the assay on RXF 393, in the assay on SK-MEL-28, in the assay with SK-MEL-2 and in the assay with U-251 was > 100 µM (inactive) in each case.

Regarding `COc1ccc(O)c(C(=O)CCC(=O)O)c1`, the GI50 was > 100 µM (inactive) in the assay on A498; > 100 µM (inactive) in the assay on DMS-273; > 100 µM (inactive) with EKVX; > 100 µM (inactive) in the assay on HCC 2998; greater than 100 µM in the assay on HCT-15; > 10 µM (inactive) in the assay on HOP-62. The GI50 in the assay on HOP-92 was > 100 µM (inactive); in the assay on IGROV-1 it was > 100 µM (inactive); in the assay with NCI-H522, > 100 µM (inactive); with OVCAR-3, > 10 µM (inactive); with OVCAR-4, > 100 µM (inactive); in the assay on OVCAR-8, > 100 µM (inactive). In addition, the GI50 in the assay with RPMI-8226, in the assay on RXF 393, in the assay on SK-MEL-28, in the assay with SK-MEL-2 and in the assay on U-251 was > 100 µM (inactive) in each case.

`Cc1cc([N+](=O)[O-])c(S(=O)(=O)c2ccccc2)c([N+](=O)[O-])c1`: the GI50 in the assay on A498 is 18.2 µM (inactive); in the assay on CAKI-1 it was 3.62 µM (inactive); in the assay on DMS-273, 12.9 µM (inactive); with EKVX, 24.2 µM (inactive); in the assay with HCC 2998, 21.2 µM (inactive); in the assay on HCT-15, 16 µM. For the same compound, the GI50 is 21.7 µM (inactive) with HOP-62; 2.43 µM (inactive) with HOP-92; 12.6 µM (inactive) with IGROV-1; 1.73 µM (inactive) in the assay with NCI-H522; 5.62 µM (inactive) in the assay on OVCAR-3; 7.83 µM (inactive) in the assay on OVCAR-4. The GI50 in the assay on OVCAR-8 was 6.9 µM (inactive); with RPMI-8226, 14.8 µM (inactive); in the assay on RXF 393, 2.2 µM (inactive); in the assay on SK-MEL-28, 18.9 µM (inactive); with SK-MEL-2 it was 20 µM (inactive); in the assay on U-251, 13.5 µM (inactive).

As for `O=C(O)/C=C\C(=O)c1ccc(Cl)cc1`, the GI50 is 79.8 µM (inactive) in the assay on A498; 24.7 µM (inactive) in the assay on CAKI-1; 20.2 µM (inactive) in the assay with DMS-273; > 56.4 µM (inactive) in the assay on EKVX; > 100 µM (inactive) in the assay with HCC 2998; 20.7 µM with HCT-15. Also, the GI50 in the assay with HOP-62 was > 100 µM (inactive); with HOP-92, 24.5 µM (inactive); in the assay on IGROV-1, > 70.1 µM (inactive); in the assay with NCI-H522, > 100 µM (inactive); in the assay on OVCAR-3, 28.8 µM (inactive); with OVCAR-4 it was 29.6 µM (inactive). In addition, the GI50 is > 74.6 µM (inactive) with OVCAR-8; 25.2 µM (inactive) in the assay on RPMI-8226; 21.5 µM (inactive) in the assay on RXF 393; 18.7 µM (inactive) with SK-MEL-28; 28.6 µM (inactive) with SK-MEL-2; > 56.9 µM (inactive) with U-251.

Regarding `COc1ccc(C2=C[C@]3(O)CCCN3C[C@@H]2c2ccc(OC)c(OC)c2)cc1`, the GI50 in the assay with A498 is < 0.0001 µM (active); in the assay with CAKI-1, < 0.0001 µM (active); in the assay with DMS-273 it was < 0.0001 µM (active); in the assay on EKVX, < 0.0001 µM (active); with HCC 2998, > 0.01 µM (active); with HCT-15 it was less than 0.0001 µM. Moreover, the GI50 is < 0.0001 µM (active) in the assay with HOP-62; < 0.0001 µM (active) in the assay on HOP-92; < 0.0001 µM (active) in the assay with IGROV-1; < 0.0001 µM (active) in the assay with NCI-H522; < 0.0001 µM (active) in the assay with OVCAR-3; > 0.01 µM (active) with OVCAR-4. The GI50 with OVCAR-8 is < 0.0001 µM (active); in the assay on RPMI-8226, > 0.01 µM (active); in the assay on RXF 393, > 0.01 µM (active); in the assay on SK-MEL-28, < 0.0001 µM (active); with SK-MEL-2 it was < 0.0001 µM (active); with U-251 it was < 0.0001 µM (active).

Turning to `CC1CC(C)C(=O)C(C(=O)CC2CC(=O)NC2=O)C1` (stereo unspecified), the GI50 with A498, in the assay with CAKI-1, in the assay on DMS-273, with EKVX, in the assay on HCC 2998 and in the assay with HOP-62 was > 100 µM (inactive) throughout. Also, the GI50 in the assay with HOP-92, in the assay on IGROV-1, in the assay on NCI-H522, in the assay with OVCAR-3, in the assay with OVCAR-4 and in the assay on OVCAR-8 was > 100 µM (inactive) each time. The GI50 with RPMI-8226, in the assay with RXF 393, in the assay on SK-MEL-28 and with U-251 was > 100 µM (inactive) in each case.

For `Cc1cc2c3ccccc3n(C)c2c2c1C(=O)C=CC2=O`, the GI50 is 17.8 µM (inactive) in the assay with A498; 14.3 µM (inactive) in the assay with CAKI-1; 13.3 µM (inactive) in the assay on DMS-273; 12 µM (inactive) in the assay on EKVX; 20.2 µM (inactive) with HCC 2998; 9.33 µM with HCT-15. Besides, the GI50 is 22.4 µM (inactive) in the assay on HOP-62; 12.1 µM (inactive) in the assay with HOP-92; 16.8 µM (inactive) in the assay on IGROV-1; 18.9 µM (inactive) with MDA-MB-435; 16.1 µM (inactive) in the assay with NCI-H522; 15 µM (inactive) in the assay on OVCAR-3. Moreover, the GI50 in the assay on OVCAR-4 was 7.29 µM (inactive); in the assay on OVCAR-8, 24.8 µM (inactive); with PC-3, 9.91 µM (inactive); in the assay on RPMI-8226, 1.58 µM (inactive); with RXF 393, 6.64 µM (inactive); with SK-MEL-28, 21.5 µM (inactive). Also, the GI50 in the assay with SK-MEL-2 is 18.1 µM (inactive); in the assay on U-251, 17.3 µM (inactive).

Take `CCCCCC(=O)Nc1nc(O)c2[nH]cnc2n1`: the GI50 is > 100 µM (inactive) with A498; > 100 µM (inactive) in the assay on CAKI-1; > 100 µM (inactive) with DMS-273; > 100 µM (inactive) in the assay on EKVX; > 100 µM (inactive) in the assay with HCC 2998; greater than 100 µM in the assay with HCT-15. Also, the GI50 with HOP-62 is > 100 µM (inactive); with HOP-92, > 100 µM (inactive); in the assay on IGROV-1, > 100 µM (inactive); with NCI-H522, 52.4 µM (inactive); in the assay with OVCAR-3, > 100 µM (inactive); in the assay with OVCAR-4, > 100 µM (inactive). For the same compound, the GI50 with OVCAR-8, in the assay on RPMI-8226, in the assay with RXF 393, with SK-MEL-2 and with U-251 was > 100 µM (inactive) each time.

Values taken from ChEMBL document CHEMBL1201862, “PubChem BioAssay data set” (2004).
